Data on 18 molecules can be found in US6534524B1, “Indazole compounds and pharmaceutical compositions for inhibiting protein kinases, and methods for their use” (Agouron Pharmaceuticals, Inc., priority 1999, dated 2003).

Where two headings read alike, the source gives them in different places. A value given as a limit tells only on which side of the number the result lay.

The nature of series [1]: Human liver microsome (HLM) assay. To be noted: human liver microsomes, 5 μM test compound. In kind it is in vitro ADME. The protocol:
Human Liver Microsome (HLM) Assay Compound metabolism in human liver microsomes was measured by LC-MS analytical assay procedures as follows. […] (3 tubes per test compound-triplicate). […] The samples were then transferred to separate polypropylene microcentrifuge tubes and centrifuged at 14000 g for 10 min. (Fisher Micro […] M0017580). For each replicate (#1-3) at each timepoint (0 and 2 h), an aliquot sample of each test compound was combined into a single HPLC vial insert (6 total samples) for LC-MS analysis, which is described below.

Series [2] can be described thus: Determination of inhibitor concentration in mouse plasma after intraperitoneal and oral dosing. In kind it is in vivo. As to conditions: for concentration at 7 h: vehicle PEG400:H2O pH 2.3 30:70, read-out: Cmin (7 hr conc.). An outline of the steps: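 Mice dosed intraperitoneally or orally; blood taken by ocular bleed at 0.5, 1 and 4 h and by intracardiac puncture at 7 h. Plasma extracted with ethyl acetate after internal standard and NaOH addition, analysed by HPLC or LC-MS against a mouse-plasma standard curve.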

Series [3] deals with unphosphorylated VEGF-R2Δ50 (FLVK) (Homo sapiens, UniProt P35968, DEL940-989/E990V). The series is described as follows: VEGF-R2 coupled spectrophotometric assay, unphosphorylated VEGF-R2Δ50 (FLVK). To be noted: for Ki: FLVK Ki, Table 1.
Series [4] concerns human umbilical vein endothelial cells (HUVEC). As to the kind of experiment: HUVEC proliferation assay (VEGF-stimulated, MTT). In kind it is cell-based. To be noted: Homo sapiens, HUVEC; read-out: HUVEC IC50.
Where [5] appears, read: IP, 25 mg/kg, vehicle PEG400:H2O pH 2.3 30:70.
Setting [6] is: PO, 50 mg/kg, vehicle PEG400:H2O pH 2.3 30:70.
[7] abbreviates: PO, 25 mg/kg, vehicle PEG400:H2O pH 2.3 30:70.
The mark [8] stands for this setting: female, PO, 25 mg/kg, vehicle PEG400:H2O pH 2.3 30:70.
Setting [9] is: female, PO, 25 mg/kg, vehicle PEG400:H2O pH 2.3 30:70, read-out: Cmax.

Chain of unphosphorylated VEGF-R2Δ50 (FLVK) (P35968 with tags, fused parts or gaps DEL940-989/E990V limits assumed): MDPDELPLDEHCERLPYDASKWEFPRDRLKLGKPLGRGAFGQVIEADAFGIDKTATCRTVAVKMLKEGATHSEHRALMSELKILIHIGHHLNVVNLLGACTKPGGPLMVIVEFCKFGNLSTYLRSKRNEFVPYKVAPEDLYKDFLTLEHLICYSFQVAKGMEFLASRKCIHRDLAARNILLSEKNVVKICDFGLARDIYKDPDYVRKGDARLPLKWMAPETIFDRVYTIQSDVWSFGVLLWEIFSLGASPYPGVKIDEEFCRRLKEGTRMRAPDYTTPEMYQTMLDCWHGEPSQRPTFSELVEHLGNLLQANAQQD

Turning to `CC(C)ONC(=O)c1ccccc1Sc1ccc2c(/C=C/c3ccccn3)n[nH]c2c1` [Example 35(k), 6-[2-(Isopropoxycarbamoyl)phenylsulfanyl]-3-E-[2-(pyridin-2-yl)ethenyl]-1H-indazole], the “% remain (HLM, 2 h)” value in series [1] is 14%. Besides, the results for the AUClast in series [2] (setting [5]) and in series [2] (setting [6]) were 2.64 µg·h/mL and 5.529 µg·h/mL, respectively. Moreover, the “plasma half-life (T1/2)” value in series [2] (setting [5]) and in series [2] (setting [6]) was 1.4 h throughout. For the same molecule, the concentration at 7 h in series [2] (female, IP, 25 mg/kg) was 0.035 µg/mL; in series [2] (female, PO, 50 mg/kg) it was 0.033 µg/mL.
For `Cn1cccc1C(=O)NNC(=O)c1ccccc1Sc1ccc2c(/C=C/c3ccccn3)n[nH]c2c1` [Example 35(e), 6-[2-((1-Methylpyrrol-2-ylhydrazido)carbonyl)phenylsulfanyl]-3-E-[2-(pyridin-2-yl)ethenyl]-1H-indazole], the “% remain (HLM, 2 h)” value in series [1] is 34%. The AUClast in series [2] (setting [5]) was found to be 2.409 µg·h/mL; in series [2] (setting [6]), 1.503 µg·h/mL. Also, the “plasma half-life (T1/2)” value stood at 1.8 h in series [2] (setting [5]) and 0.9 h in series [2] (setting [6]). The concentration at 7 h was determined as 0.065 µg/mL in series [2] (female, IP, 25 mg/kg) and 0.006 µg/mL in series [2] (female, PO, 50 mg/kg).
On to `O=C(NCc1ccccc1F)c1ccccc1Sc1ccc2c(/C=C/c3ccccn3)n[nH]c2c1` [Example 35(f)], for which, in series [1], the “% remain (HLM, 2 h)” value amounted to 15%.
With `CCCONC(=O)c1ccccc1Sc1ccc2c(/C=C/c3ccccn3)n[nH]c2c1` [Example 35(t), 6-[2-(n-Propoxycarbamoyl)phenylsulfanyl]-3-E-[2-(pyridin-2-yl)ethenyl]-1H-indazole], the “% remain (HLM, 2 h)” value in series [1] turned out to be 7%. In addition, in series [2] (setting [7]), the AUClast amounted to 3.199 µg·h/mL and the “plasma half-life (T1/2)” value came to 1.1 h. Further, in series [2] (female, PO, 25 mg/kg), the concentration at 7 h came to 0.041 µg/mL.
As usually defined, the AUC(0-t) is the area under the concentration-time curve up to a stated or last time point. Low readings indicate less exposure, high ones more exposure. One may read the Cmax as the maximum level reached in the sampled fluid or tissue. On to `O=C(NCC1CC1)c1ccccc1Sc1ccc2c(/C=C/c3ccccn3)n[nH]c2c1` [Example 35(v), 6-[2-(Cyclopropylmethyl-carbamoyl)phenylsulfanyl]-3-E-[2-(pyridin-2-yl)ethenyl]-1H-indazole], for which, in series [1], the “% remain (HLM, 2 h)” value was found to be 26%. This molecule also yielded an AUClast in series [2] (setting [5]) of 4.865 µg·h/mL. The “plasma half-life (T1/2)” value was 0.9 h in series [2] (setting [5]) and 1.0 h in series [2] (setting [6]). Moreover, the concentration at 7 h was determined as 0.016 µg/mL in series [2] (female, IP, 25 mg/kg) and 0.026 µg/mL in series [2] (female, PO, 50 mg/kg). Moreover, the AUC(0-t) in series [2] (female, PO, 50 mg/kg, vehicle PEG400:H2O pH 2.3 30:70) was over 2.95 µg·h/mL. Also, the Cmax in series [2] (female, PO, 50 mg/kg, vehicle PEG400:H2O pH 2.3 30:70, read-out: Cmax) was over 2 µg/mL.
As for `O=C(Nc1cccc(Oc2ccc3c(/C=C/c4ccccc4)n[nH]c3c2)c1)c1ccccc1` [Example 4(a), N-[3-(3-Styryl-1H-indazol-6-yloxy)-phenyl]-benzamide], the “% remain (HLM, 2 h)” value in series [1] turned out to be 35%.
`CCONC(=O)c1cccc(F)c1Sc1ccc2c(/C=C/c3ccccn3)n[nH]c2c1` [Example 37(a), 6-[6-Fluoro-2-(ethoxycarbamoyl)phenylsulfanyl]-3-E-[2-(pyridin-2-yl)ethenyl]-1H-indazole]: the “% remain (HLM, 2 h)” value in series [1] was 21%.
As for `O=C(Cc1cc(F)cc(F)c1)Nc1cccc(C(=O)c2ccc3c(/C=C/c4ccccn4)n[nH]c3c2)c1` [Example 41(f), 6-[3-(3,5-Difluorophenylacetamido)benzoyl]-3-E-[2-(pyridin-2-yl)ethenyl]-1H-indazole], the “% remain (HLM, 2 h)” value in series [1] came to 59%.
For `O=C(Nc1nccs1)c1ccccc1Sc1ccc2c(/C=C/c3ccccn3)n[nH]c2c1` [Example 35(y), 6-[2-(Thiazol-2-ylcarbamoyl)phenylsulfanyl]-3-E-[2-(pyridin-2-yl)ethenyl]-1H-indazole], the “% remain (HLM, 2 h)” value in series [1] amounted to 7%. In addition, the AUClast came out at 0.159 µg·h/mL in series [2] (setting [5]) and 0.058 µg·h/mL in series [2] (setting [6]). Besides, the “plasma half-life (T1/2)” value in series [2] (setting [5]) and in series [2] (setting [6]) was 1.2 h throughout. Also, the concentration at 7 h in series [2] (female, IP, 25 mg/kg) worked out at 0.002 µg/mL; in series [2] (female, PO, 50 mg/kg) it was 0.001 µg/mL.
With `O=C(NOCC1CC1)c1ccccc1Sc1ccc2c(/C=C/c3ccccn3)n[nH]c2c1` [Example 35(s), 6-[2-((Cyclopropyl)methoxycarbamoyl)phenylsulfanyl]-3-E-[2-(pyridin-2-yl)ethenyl]-1H-indazole], the “% remain (HLM, 2 h)” value in series [1] is listed as 16%. The “plasma half-life (T1/2)” value in series [2] (setting [7]) is 2.2 h. The AUC(0-t) in series [2] (setting [8]) worked out at 7.42 µg·h/mL. Further, the Cmax in series [2] (setting [9]) stood at 3.37 µg/mL. Further, the concentration at 7 h in series [2] (female, PO, 25 mg/kg) amounted to 0.086 µg/mL.
Consider `CC(=O)Nc1cccc(Sc2ccc3c(/C=C/c4ccccc4)n[nH]c3c2)c1` [Example 20(a), 6-(3-Acetamido-phenylsulfanyl)-3-styryl-1H-indazole], for which the “% remain (HLM, 2 h)” value in series [1] was found to be 52%.
Regarding `O=C(NCc1ccco1)c1ccccc1Sc1ccc2c(/C=C/c3ccccn3)n[nH]c2c1` [Example 35(bb), 6-[2-((fur-2-yl)Methylcarbamoyl)phenylsulfanyl]-3-E-[2-(pyridin-2-yl)ethenyl]-1H-indazole], in series [1], the “% remain (HLM, 2 h)” value is 8%.
`C=CCNC(=O)c1ccccc1Sc1ccc2c(/C=C/c3ccccn3)n[nH]c2c1` [Example 35(u), 6-[2-(Allylcarbamoyl)phenylsulfanyl]-3-E-[2-(pyridin-2-yl)ethenyl]-1H-indazole]: the “% remain (HLM, 2 h)” value in series [1] is on record as 27%.
For the molecule `O=C(N[C@@H]1C[C@H]1c1ccccc1)c1ccccc1Sc1ccc2c(/C=C/c3ccccn3)n[nH]c2c1` (racemic) [Example 34], in series [1], the “% remain (HLM, 2 h)” value is reported as 28%.
The Ki is a measure of affinity in units of concentration, obtained from inhibition or displacement. In series [3], `CCn1nc(C)cc1C(=O)Nc1cccc(Oc2ccc3c(/C=C/c4c[nH]c(C)n4)n[nH]c3c2)c1` [Example 32(c), 6-[3-((1-Ethyl-3-methyl-1H-pyrazol-5-yl)carboxamido)phenoxy]-3-E-[2-(2-methylimidazol-4-yl)ethenyl]-1H-indazole] yielded a Ki of 0.27 nM. Further, in series [2] (setting [7]), the AUClast was 0.388 µg·h/mL, the Cmax came to 0.161 µg/mL and the “plasma half-life (T1/2)” value turned out to be 2.4 h. The concentration at 7 h in series [2] (female, PO, 25 mg/kg) is 0.01 µg/mL.
In series [3], `O=C(Nc1cccc(Oc2ccc3c(/C=C/c4c[nH]cn4)n[nH]c3c2)c1)c1ccccc1` [Example 32(a), 6-[3-Benzamidophenoxy]-3-E-[2-(1H-imidazol-4-yl)ethenyl]-1H-indazole] registered an inhibitory constant (Ki) of under 0.1 nM. Besides, the AUClast in series [2] (setting [6]) worked out at 4.19 µg·h/mL. Besides, the AUC(0-t) is over 20.6 µg·h/mL in series [2] (female, IP, 25 mg/kg, vehicle PEG400:H2O pH 2.3 30:70) and 0.49 µg·h/mL in series [2] (setting [8]). The concentration at 7 h was 1.27 µg/mL in series [2] (female, IP, 25 mg/kg); 0.018 µg/mL in series [2] (female, PO, 25 mg/kg); 0.04 µg/mL in series [2] (female, PO, 50 mg/kg).
As usually defined, the IC50 is the point on the concentration scale where inhibition reaches its midpoint. The inhibition is the percentage by which the read-out fell short of the control. For the molecule `CNC(=O)c1ccccc1Nc1ccc2c(/C=C/c3ccccn3)n[nH]c2c1` [Example 39(a), 6-[2-(Methylcarbamoyl)phenylamino]-3-E-[2-(pyridin-2-yl)ethenyl]-1H-indazole], in series [4], the IC50 amounted to 1.4 nM. In series [3] (read-out: FLVK % inhibition), the inhibition at 0.05 µM came out at 53%. The “plasma half-life (T1/2)” value in series [2] (setting [7]) was determined as 1.4 h. The exposure AUC(0-t) in series [2] (setting [8]) was over 14.8 µg·h/mL. Moreover, the Cmax in series [2] (setting [9]) is over 4 µg/mL. For the same molecule, in series [2] (female, PO, 25 mg/kg), the concentration at 7 h worked out at 0.219 µg/mL.
The molecule `COc1cc(C(=O)Nc2cccc(C(=O)c3ccc4c(/C=C/c5ccccn5)n[nH]c4c3)c2)cc(Cl)n1` [Example 41(u), 6-[3-((2-Chloro-6-methoxypyridin-4-yl)carboxanido)benzoyl]-3-E-[2-(pyridin-2-yl)ethenyl]-1H-indazole] came in with a Ki in series [3] of 0.08 nM. Besides, in series [2] (setting [7]), the AUClast amounted to 0.875 µg·h/mL, the Cmax was found to be 0.224 µg/mL and the “plasma half-life (T1/2)” value worked out at 5.6 h. Also, the concentration at 7 h in series [2] (female, PO, 25 mg/kg) is 0.051 µg/mL.
